In the NIST ThermoML archive (doi:10.1021/je060271a):
“And” between values parts separate entries of the source, which are not always exact repeats. Equal values may be shown once.

Settings: 343.16 K, Liquid, Vibrating tube method

CCCCCC(=O)OCC(COC(=O)CCCCC)(COC(=O)CCCCC)COC(=O)CCCCC [pentaerythritol tetrahexanoate]
Settings | mass density
354.4 kPa | 957.4 kg/m3 and 957.3 kg/m3
355.3 kPa | 957.3 kg/m3
355.8 kPa | 957.3 kg/m3
356.3 kPa | 957.3 kg/m3
356.7 kPa | 957.4 kg/m3
357 kPa | 957.4 kg/m3
357.2 kPa | 957.4 kg/m3
357.5 kPa | 957.4 kg/m3
357.9 kPa | 957.4 kg/m3
358.6 kPa | 957.4 kg/m3
359.5 kPa | 957.4 kg/m3
360.3 kPa | 957.4 kg/m3
360.5 kPa | 957.3 kg/m3
360.7 kPa | 957.3 kg/m3
361.4 kPa | 957.3 kg/m3
361.6 kPa | 957.4 kg/m3
361.9 kPa | 957.3 kg/m3
362.3 kPa | 957.5 kg/m3
362.6 kPa | 957.5 kg/m3
362.9 kPa | 957.4 kg/m3
365.9 kPa | 957.3 kg/m3 and 957.4 kg/m3
366.4 kPa | 957.3 kg/m3
366.8 kPa | 957.4 kg/m3
367.3 kPa | 957.3 kg/m3
367.6 kPa | 957.3 kg/m3
368 kPa | 957.5 kg/m3
368.1 kPa | 957.3 kg/m3
368.5 kPa | 957.4 kg/m3
370.4 kPa | 957.4 kg/m3
370.8 kPa | 957.3 kg/m3
371.3 kPa | 957.5 kg/m3
371.6 kPa | 957.4 kg/m3
372 kPa | 957.4 kg/m3
372.3 kPa | 957.4 kg/m3
379.4 kPa | 957.5 kg/m3
379.8 kPa | 957.4 kg/m3
380.3 kPa | 957.4 kg/m3
405.3 kPa | 957.4 kg/m3
406 kPa | 957.4 kg/m3
406.2 kPa | 957.3 kg/m3
406.4 kPa | 957.4 kg/m3
406.9 kPa | 957.4 kg/m3
410.7 kPa | 957.3 kg/m3
411.1 kPa | 957.4 kg/m3
411.8 kPa | 957.4 kg/m3
412.5 kPa | 957.5 kg/m3
415.9 kPa | 957.4 kg/m3
416.3 kPa | 957.4 kg/m3
416.6 kPa | 957.3 kg/m3
417.3 kPa | 957.2 kg/m3
417.7 kPa | 957.3 kg/m3
421.8 kPa | 957.4 kg/m3
422.4 kPa | 957.5 kg/m3
422.9 kPa | 957.5 kg/m3
423.1 kPa | 957.4 kg/m3
495.2 kPa | 957.5 kg/m3
498.6 kPa | 957.4 kg/m3
501.8 kPa | 957.5 kg/m3
506.1 kPa | 957.5 kg/m3
509.6 kPa | 957.5 kg/m3
513.1 kPa | 957.4 kg/m3
517.4 kPa | 957.5 kg/m3
521.2 kPa | 957.5 kg/m3
541.9 kPa | 957.6 kg/m3
598.9 kPa | 957.5 kg/m3
1360.7 kPa | 958.2 kg/m3
1373.7 kPa | 958.2 kg/m3
1386.7 kPa | 958 kg/m3
1402 kPa | 958.1 kg/m3
1499.4 kPa | 958.2 kg/m3
1527.2 kPa | 958.3 kg/m3
1543.9 kPa | 958.2 kg/m3
1635.2 kPa | 958.4 kg/m3
1649.9 kPa | 958.4 kg/m3
1664.3 kPa | 958.4 kg/m3
1682.1 kPa | 958.4 kg/m3
2922.7 kPa | 959.2 kg/m3
2945.6 kPa | 959.4 kg/m3
3846.3 kPa | 960.1 kg/m3
3871.7 kPa | 960 kg/m3
3901.2 kPa | 960.1 kg/m3
3926.1 kPa | 960 kg/m3
3956.3 kPa | 960.1 kg/m3
3981.7 kPa | 960.2 kg/m3
9203.5 kPa | 964.1 kg/m3
9234 kPa | 964.1 kg/m3
9270 kPa | 964.2 kg/m3
9300.6 kPa | 964.1 kg/m3
9331.6 kPa | 964.1 kg/m3
9596.7 kPa | 964.4 kg/m3
9628.1 kPa | 964.4 kg/m3
9666.2 kPa | 964.4 kg/m3
9698 kPa | 964.4 kg/m3
9736.5 kPa | 964.4 kg/m3
9768.5 kPa | 964.5 kg/m3
9839 kPa | 964.5 kg/m3
9871.9 kPa | 964.6 kg/m3
9905.6 kPa | 964.5 kg/m3
9938.9 kPa | 964.7 kg/m3
9971.6 kPa | 964.5 kg/m3
10011 kPa | 964.7 kg/m3
10044 kPa | 964.7 kg/m3
10084 kPa | 964.7 kg/m3
10117 kPa | 964.9 kg/m3
10151 kPa | 964.7 kg/m3
10192 kPa | 965 kg/m3
10225 kPa | 964.9 kg/m3
10259 kPa | 964.9 kg/m3
10294 kPa | 964.9 kg/m3
10335 kPa | 964.8 kg/m3
10369 kPa | 965 kg/m3
10404 kPa | 965 kg/m3
10446 kPa | 965 kg/m3
10481 kPa | 964.9 kg/m3
10516 kPa | 964.9 kg/m3
10551 kPa | 965 kg/m3
10593 kPa | 965.2 kg/m3
10628 kPa | 965.1 kg/m3
10670 kPa | 965.1 kg/m3
10705 kPa | 965.2 kg/m3
10741 kPa | 965.2 kg/m3
10777 kPa | 965.2 kg/m3
10820 kPa | 965.2 kg/m3
10856 kPa | 965.5 kg/m3
10893 kPa | 965.4 kg/m3
10929 kPa | 965.3 kg/m3
10972 kPa | 965.3 kg/m3
12411 kPa | 966.4 kg/m3
12434 kPa | 966.4 kg/m3
12457 kPa | 966.5 kg/m3
12484 kPa | 966.4 kg/m3
12507 kPa | 966.5 kg/m3
12530 kPa | 966.5 kg/m3
12559 kPa | 966.6 kg/m3
12577 kPa | 966.5 kg/m3
12604 kPa | 966.5 kg/m3
12626 kPa | 966.5 kg/m3
12653 kPa | 966.7 kg/m3
12675 kPa | 966.5 kg/m3
12697 kPa | 966.5 kg/m3
12722 kPa | 966.6 kg/m3
12741 kPa | 966.6 kg/m3
12760 kPa | 966.7 kg/m3
12778 kPa | 966.8 kg/m3
12793 kPa | 966.6 kg/m3
